Results published in patent US8785452B2, “Anti-infective compounds” (priority 2008, dated 2014).
Like-named read-outs stand apart in the source and are kept apart here.

Tests used:
[1] = system: M. tuberculosis H37Rv-GFP; assay: microbe, parasite or virus in culture; format: cell-based, Mycobacterium tuberculosis; details: Mycobacterium tuberculosis, H37RV, Macrophage; for inhibition at 0.2 µM: read-out: QIM Confirm % Inhibition 0.2 uM; for inhibition at 2 µM: read-out: QIM Confirm % Inhibition 2 uM
Raw264.7 cells = assay: Cell number (CellNb) from image analysis of the phenotypic cell-based assay
[2] = system: M. tuberculosis H37Rv-GFP; assay: microbe, parasite or virus in culture; format: cell-based; details: Mycobacterium tuberculosis; for inhibition at 0.2 µM: read-out: QUM Confirm % Inhibition 0.2 uM; for inhibition at 2 µM: read-out: QUM Confirm % Inhibition 2 uM; for inhibition at 20 µM: read-out: QUM Confirm % Inhibition 20 uM
[3] = confirmation, 0.2 uM, intracellular
[4] = confirmation, 2 uM, intracellular
[5] = confirmation, 20 uM, read-out: QIM Confirm % Inhibition 20 uM
[6] = primary screen, 20 μM, read-out: Primary QIM % Inhibition

## O=C1Nc2ccccc2/C1=N/NC(=O)c1ccncc1 [IPK 000 006 35]
[1]; [3]
  inhibition at 0.2 µM: 17.7%
[1]; [4]
  inhibition at 2 µM: 22.8%
[1]; [5]
  inhibition at 20 µM: 65.2%
[1]; [6]
  inhibition at 20 µM: 97.6%
Raw264.7 cells; confirmation, 0.2 uM
  QIM Confirm CellNb 0.2 uM: 262.8
Raw264.7 cells; confirmation, 2 uM
  QIM Confirm CellNb 2 uM: 320.9
Raw264.7 cells; confirmation, 20 uM
  QIM Confirm CellNb 20 uM: 328.8
Raw264.7 cells; primary screen, 20 μM
  Primary QIM CellNb: 424.3
[2]
  inhibition at 0.2 µM: 23.7%
  inhibition at 2 µM: 41.9%
  inhibition at 20 µM: 43.4%

## N#CC(C#N)=NNc1ccc(I)cc1 [IPK 000 007 31]
[1]; read-out: Primary QIM % Inhibition
  inhibition at 20 µM: -28.2%
[1]
  inhibition at 0.2 µM: 45.7%
  inhibition at 2 µM: 14.7%
[1]; read-out: QIM Confirm % Inhibition 20 uM
  inhibition at 20 µM: 25.8%
Raw264.7 cells
  Primary QIM CellNb: 61.3
  QIM Confirm CellNb 0.2 uM: 393.1
  QIM Confirm CellNb 2 uM: 308.8
  QIM Confirm CellNb 20 uM: 166.5
[2]
  inhibition at 0.2 µM: 41%
  inhibition at 2 µM: 33%
  inhibition at 20 µM: 80.8%

## O=C(NN1C(=O)c2ccc(Br)cc2C1=O)c1ccncc1 [IPK 000 008 02]
[1]; [3]
  inhibition at 0.2 µM: 0.7%
[1]; [4]
  inhibition at 2 µM: 9.3%
[1]; [5]
  inhibition at 20 µM: 98%
[1]; [6]
  inhibition at 20 µM: 83.2%
Raw264.7 cells; confirmation, 0.2 uM
  QIM Confirm CellNb 0.2 uM: 306.6
Raw264.7 cells; confirmation, 2 uM
  QIM Confirm CellNb 2 uM: 218.8
Raw264.7 cells; confirmation, 20 uM
  QIM Confirm CellNb 20 uM: 484.5
Raw264.7 cells; primary screen, 20 μM
  Primary QIM CellNb: 305.8
[2]
  inhibition at 0.2 µM: 36.4%
  inhibition at 2 µM: 31.9%
  inhibition at 20 µM: 98.2%

## CN1CCN(c2nc(Nc3ccc(OC(F)(F)F)cc3)nc(OCC(F)(F)F)n2)CC1 [IPK 000 008 12]
[1]; [3]
  inhibition at 0.2 µM: 2.7%
[1]; [4]
  inhibition at 2 µM: 18.9%
[1]; [5]
  inhibition at 20 µM: 78.4%
[1]; [6]
  inhibition at 20 µM: 64.1%
Raw264.7 cells; confirmation, 0.2 uM
  QIM Confirm CellNb 0.2 uM: 292.9
Raw264.7 cells; confirmation, 2 uM
  QIM Confirm CellNb 2 uM: 225.6
Raw264.7 cells; confirmation, 20 uM
  QIM Confirm CellNb 20 uM: 248.0
Raw264.7 cells; primary screen, 20 μM
  Primary QIM CellNb: 396.3
[2]
  inhibition at 0.2 µM: 36.5%
  inhibition at 2 µM: 39.7%
  inhibition at 20 µM: 48%

## O=C(N/N=C/c1cc(Br)cc(Br)c1O)c1ccncc1 [IPK 000 009 33]
[1]; [3]
  inhibition at 0.2 µM: 8.5%
[1]; [4]
  inhibition at 2 µM: 92.5%
[1]; [5]
  inhibition at 20 µM: 56.9%
[1]; [6]
  inhibition at 20 µM: 79.9%
Raw264.7 cells; confirmation, 0.2 uM
  QIM Confirm CellNb 0.2 uM: 264.8
Raw264.7 cells; confirmation, 2 uM
  QIM Confirm CellNb 2 uM: 475.9
Raw264.7 cells; confirmation, 20 uM
  QIM Confirm CellNb 20 uM: 333.6
Raw264.7 cells; primary screen, 20 μM
  Primary QIM CellNb: 314.5
[2]
  inhibition at 0.2 µM: 31.8%
  inhibition at 2 µM: 44.5%
  inhibition at 20 µM: 69.8%

## O=C(N/N=C/c1cc(Br)c(Br)o1)c1ccncc1 [IPK 000 009 41]
[1]; [3]
  inhibition at 0.2 µM: 19.6%
[1]; [4]
  inhibition at 2 µM: 92.8%
[1]; [5]
  inhibition at 20 µM: 99.6%
[1]; [6]
  inhibition at 20 µM: 92.9%
Raw264.7 cells; confirmation, 0.2 uM
  QIM Confirm CellNb 0.2 uM: 257.8
Raw264.7 cells; confirmation, 2 uM
  QIM Confirm CellNb 2 uM: 488.3
Raw264.7 cells; confirmation, 20 uM
  QIM Confirm CellNb 20 uM: 446.5
Raw264.7 cells; primary screen, 20 μM
  Primary QIM CellNb: 345.8
[2]
  inhibition at 0.2 µM: 28.3%
  inhibition at 2 µM: 59.6%
  inhibition at 20 µM: 99.4%

## O=C(N/N=C\c1ccc(Cl)s1)c1ccncc1 [IPK 000 009 42]
[1]; [3]
  inhibition at 0.2 µM: 21.3%
[1]; [4]
  inhibition at 2 µM: 92.3%
[1]; [5]
  inhibition at 20 µM: 97.9%
[1]; [6]
  inhibition at 20 µM: 93.1%
Raw264.7 cells; confirmation, 0.2 uM
  QIM Confirm CellNb 0.2 uM: 326.3
Raw264.7 cells; confirmation, 2 uM
  QIM Confirm CellNb 2 uM: 473.5
Raw264.7 cells; confirmation, 20 uM
  QIM Confirm CellNb 20 uM: 255.0
Raw264.7 cells; primary screen, 20 μM
  Primary QIM CellNb: 376.5
[2]
  inhibition at 0.2 µM: 28.8%
  inhibition at 2 µM: 50.3%
  inhibition at 20 µM: 100%

## CC1=NN(C(=O)c2ccncc2)C(O)(C(F)(F)F)C1 (centres unmarked) [IPK 000 009 78]
[1]; [3]
  inhibition at 0.2 µM: 17%
[1]; [4]
  inhibition at 2 µM: 50.2%
[1]; [5]
  inhibition at 20 µM: 88.6%
[1]; [6]
  inhibition at 20 µM: 103%
Raw264.7 cells; confirmation, 0.2 uM
  QIM Confirm CellNb 0.2 uM: 325.5
Raw264.7 cells; confirmation, 2 uM
  QIM Confirm CellNb 2 uM: 414.4
Raw264.7 cells; confirmation, 20 uM
  QIM Confirm CellNb 20 uM: 376.1
Raw264.7 cells; primary screen, 20 μM
  Primary QIM CellNb: 454.5
[2]
  inhibition at 0.2 µM: 30%
  inhibition at 2 µM: 61.1%
  inhibition at 20 µM: 100%

## O=C(N/N=C/c1cccc(Br)c1)C1C2CC/C=C\CCC21 (centres unmarked) [IPK 000 010 06]
[1]; [3]
  inhibition at 0.2 µM: 17.1%
[1]; [4]
  inhibition at 2 µM: 18%
[1]; [5]
  inhibition at 20 µM: 81.8%
[1]; [6]
  inhibition at 20 µM: 81%
Raw264.7 cells; confirmation, 0.2 uM
  QIM Confirm CellNb 0.2 uM: 412.0
Raw264.7 cells; confirmation, 2 uM
  QIM Confirm CellNb 2 uM: 344.9
Raw264.7 cells; confirmation, 20 uM
  QIM Confirm CellNb 20 uM: 380.9
Raw264.7 cells; primary screen, 20 μM
  Primary QIM CellNb: 322.8
[2]
  inhibition at 0.2 µM: 39.5%
  inhibition at 2 µM: 43.1%
  inhibition at 20 µM: 39.2%

## O=C1c2ccccc2-c2nc3nonc3nc21 [IPK 000 011 19]
[1]; [3]
  inhibition at 0.2 µM: 9.7%
[1]; [4]
  inhibition at 2 µM: 31.6%
[1]; [5]
  inhibition at 20 µM: 47.6%
[1]; [6]
  inhibition at 20 µM: 60%
Raw264.7 cells; confirmation, 0.2 uM
  QIM Confirm CellNb 0.2 uM: 248.8
Raw264.7 cells; confirmation, 2 uM
  QIM Confirm CellNb 2 uM: 80.0
Raw264.7 cells; confirmation, 20 uM
  QIM Confirm CellNb 20 uM: 279.1
Raw264.7 cells; primary screen, 20 μM
  Primary QIM CellNb: 190.8
[2]
  inhibition at 0.2 µM: 67.2%
  inhibition at 2 µM: 93.2%
  inhibition at 20 µM: 43.1%
